Biological target: T1, Interleukin-1 receptor-associated kinase 4 (UniProt A0A8C0TG75)
T1 sequence (A0A8C0TG75 whole entry): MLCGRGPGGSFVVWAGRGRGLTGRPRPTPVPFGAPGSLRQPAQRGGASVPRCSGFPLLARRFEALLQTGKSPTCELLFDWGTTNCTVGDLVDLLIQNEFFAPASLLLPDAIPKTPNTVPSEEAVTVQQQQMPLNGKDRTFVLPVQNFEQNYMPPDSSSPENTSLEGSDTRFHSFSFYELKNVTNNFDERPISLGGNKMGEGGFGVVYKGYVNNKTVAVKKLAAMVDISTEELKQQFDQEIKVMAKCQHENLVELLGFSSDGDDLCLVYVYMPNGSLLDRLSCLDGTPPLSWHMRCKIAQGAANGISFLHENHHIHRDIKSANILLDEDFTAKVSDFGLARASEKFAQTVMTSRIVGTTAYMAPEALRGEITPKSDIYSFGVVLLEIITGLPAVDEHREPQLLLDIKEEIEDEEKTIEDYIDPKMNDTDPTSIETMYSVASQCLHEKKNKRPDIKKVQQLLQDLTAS
Experiment: Canine IRAK4 Kinase Assay
Protocol: 50 nl of the respective solution were pipetted into a black low-volume 384-well microtitre plate (Greiner Bio-One, Frickenhausen, Germany), 2 μl of a solution of Irak4 in assay buffer [50 mM HEPES pH 7.5, 5 mM MgCl2, 1.0 mM dithiothreitol, 30 μM activated sodium orthovanadate, 0.1% (w/v) of bovine gamma-globulin (BGG) 0.04% (v/v) nonidet-P40 (Sigma)] were added and the mixture was incubated for 15 min to allow prebinding of the substances to the enzyme prior to the kinase reaction. […] The concentration of the Irak4 was adjusted to the respective activity of the enzyme and set such that the assay was carried out in the linear range. Typical concentrations were in the order of about 0.1 nM.

Structure (SMILES)	IC50 [nM]
CC(C)(O)CCn1cc2cc(NC(=O)c3cccc(C(F)F)n3)c(C(C)(C)O)cc2n1 [US12459916, Example 13]	1.75
Cc1nc(C(=O)Nc2cc3cn(CCC(C)(C)O)nc3cc2C(C)(C)O)ccc1F [US12459916, Example 19]	8.46
